For assay [1] the following is noted: in vivo; cited from earlier work.
Assay [2] is described as follows: Young growing male Wistar rats fed obesity-inducing diet, 90 days (Example 3). The class given is in vivo. As to conditions: fenfluramine group. Here is the method: Young growing male Wistar rats, of about 220 grams average initial weight, were fed the obesity-inducing diet. Concomitantly, the rats were administered, 1.0 gram DRD, 1.5 grams DRD, or 5.0 grams DRD, by daily intubation, for 90 days. The treatment groups gained 21%, 24% and 47% less weight, respectively, than did the placebo controls. The rats administered fenfluramine gained 22% less weight than did the controls.
Thus, the prevention of weight gain appears to be due to a reduction in fat storage, and that the skeletal muscle had been preserved.

Assay [3] can be described thus: Female Wistar rats fed high fat diet for 56 days (Example 4). It is filed as in vivo. Here is the method: Sixty female Wistar rats, averaging 220 g in weight, were randomly allotted to five experimental groups and fed the high fat diet described in Table I below for 56 days. The rats were housed individually in wire mesh cages equipped with an automated watering system. The room housing the rats was maintained at a temperature of 22° to 24° C., with a light-dark cycle of 12 hours each. Following the one-week quarantine period the rats were adapted to handling, and to oral insertion of the gastric intubation device over the next ten days. Water was intubated once a day during this period. After ten days, the rats no longer indicated marked distress during the procedure.
After adaption to the intubation procedure, the diet of Table I was initiated. This diet is comprised of 56% of energy from fat. All treatment and placebo intubations occurred between 1600 and 1800 hours. Individual food intake was measured daily throughout the study. Body weight was measured daily through day 23 and twice weekly thereafter. The experimental period lasted 56 days. Lin, X., M. R. Chavex, R. C. Bruch, et al., J. Nutrition 128:1606-13, 1998.
Referring to Table II below, the five groups consisted of: the control group (n=15), which were fed ad libitum, and were intubated daily with 1 mL of water. The “low dose DRD” (n=10) and the “high dose DRD” (n=15) groups, which were fed ad libitum and administered daily 1 mL of the aqueous extract obtained from 0.75 grams and 1.50 grams of the initial dried herb mixture by intubation, respectively. The “fenfluramine group” (n=10), which was fed ad libitum and received 2 mg/kg fenfluramine in 1 mL of water daily, by intubation, and, finally, a fifth group (n=10) was pair-fed to the high dose DRD group and was administered 1 mL of water daily, by intubation.
Food consumption for all rats was determined daily, and body weights were obtained daily for the first 23 days, and then twice a week for the next 33 days. After 56 days all the rats except five from the control group and five from the high dose DRD group were sacrificed. Trunk blood was collected, and the eviscerated carcasses were homogenized, dried and assayed for body composition. White and brown fat depots, liver, kidney, spleen, heart, and gastrocnemius muscle were weighed. During the 56 days of the experiment, all rats were observed daily by the animal technician, and weekly by a veterinarian, and notations were made regarding physical activity/lethargy, fur condition, skin condition, eye condition, stools, and “others.” There were no noticeable differences among any of the groups with regard to physical activity, skin condition, and eye condition. […] This behavior lasted about one week and then stopped.
The serum was analyzed for insulin, corticosterone and leptin, using standard commercially available immunoassays for the rat. Alkaline phosphatase, alanine aminotransferase, amylase, aspartate aminotransferase, chloride, cholesterol, creatinine phosphokinase, γ-glutamyl transpeptidase, glucose, hemoglobin, hematocrit, mean cell volume, platelets, potassium, sodium, triglycerides, and white blood cells were assayed by standard clinical laboratory methods. All data were pooled by treatment and subjected to a One-Way Analysis of Variance (ANOVA) followed by a Scheffe Comparison of Means analysis (for unbalanced groups). Statistix® for Windows, 1998. Analytical Software, Tallahassee, Fla. 32317.
The rats that were not sacrificed and had previously received the high dose DRD had their treatment withdrawn during a 14-day “recovery period.” On the 15th day of this recovery period these rats, plus five control rats, were sacrificed and all the above analyses were conducted.

[4] abbreviates: d-fenfluramine 2 mg/kg, 56 days.

Here are results for two compounds from patent US20040071799A1, “Herbal compositions and methods for effecting weight loss in humans” (priority 2001, published 2004).

Consider `CCCCCCCCCCC[C@@H](C[C@@H]1OC(=O)[C@H]1CCCCCC)OC(=O)[C@H](CC(C)C)NC=O` [Orlistat], for which the “decrease of the amount of fat absorbed from the diet” value in assay [1] is reported as “diet by 30%”.

For `CCNC(C)Cc1cccc(C(F)(F)F)c1` (centres unmarked) [fenfluramine], the “less weight gained than controls” value in assay [2] is 22%. For the same compound, in assay [3] (setting [4]), the “Average Final Weight, Gms ± SD.” value is listed as 325.7 ± 33.7 Gms and the “Average Gain, Gms ± SD” value is 106.9 ± 22.0 Gms. In addition, in assay [3] (fenfluramine), the “calories required to cause a one-gram weight gain” value is given as 18.16 calories and the “food efficiency: gain in weight per calorie available for gain above maintenance” value is 0.0545 grams per calorie. In addition, in assay [3] (fenfluramine 2 mg/kg daily, 56th day), the “less weight gained than controls” value is 12.3%. Besides, the total food consumed result in assay [3] (fenfluramine, 56 day period) is given as “consumed less total food over the 56 day period than the controls”. For the same compound, in assay [3] (fenfluramine, 56 days), the “food efficiency lower than controls (grams gain per gram of food ingested)” value is given as 7.8% and the “weight gained as fat (body composition)” value is “gained significantly less fat than did the controls”. Besides, the serum leptin result in assay [3] (fenfluramine, end of 56-day treatment) is “less leptin than controls”.
